Results on ten molecules are retold here after ChEMBL document CHEMBL1121801, “Salicylamide derivatives related to medroxalol with alpha- and beta-adrenergic antagonist and antihypertension activity” (J Med Chem, 1981).

The term pA2 denotes the negative logarithm of the molar antagonist concentration that doubles the agonist concentration needed for the same response. Read a low pA2 as a weaker antagonist.

The species entered for experiment [1] is Oryctolagus cuniculus. The experiment can be described thus: Ratio of pA2 for beta-adrenergic receptor to that of alpha-adrenergic receptor.
The target of experiment [2] is Adrenergic receptor alpha (Homo sapiens) (UniProt P35348+P08913+P18825+P25100+P35368+P18089). As to conditions: Canis lupus familiaris.
Description: In vivo sympatholytic activity (phenylephrine-induced vasopressor response) at alpha-adrenergic receptor in anesthetized dog, iv
Experiment [3] deals with Adrenergic receptor beta (Homo sapiens, UniProt P08588+P07550+P13945). In words: In vitro blocking activity against beta adrenergic receptor, isolated from guinea pig atria. It is filed as protein assay.
Experiment [4] concerns the target Beta-1 adrenergic receptor (Homo sapiens) (UniProt P08588). To be noted: Canis lupus familiaris.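 Also: anesthetized dogs dosed intravenously, sympatholytic action measured as inhibition of the chronotropic response to isoproterenol.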
Description: In vivo sympatholytic activity (isoproterenol-induced chronotropy) at beta 1-adrenergic receptor in anesthetized dog, iv
Experiment [5] has as its system Rattus norvegicus. The experiment can be described thus: Antihypertensive activity in spontaneously hypertensive rats(SHR) at 50 mg/kg peroral dose after 4 h, expressed as decrease in systolic blood pressure. The experiment is classed as functional, Artery. To be noted: route oral.
In experiment [6] the target is Beta-2 adrenergic receptor (Canis lupus familiaris) (UniProt P54833).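 Also: Beta-2 blockade of isoproterenol-induced vasodepression in anesthetized dogs, given intravenously.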
Beta-2 adrenergic receptor (Canis lupus familiaris), sequence (P54833 whole entry, looked up): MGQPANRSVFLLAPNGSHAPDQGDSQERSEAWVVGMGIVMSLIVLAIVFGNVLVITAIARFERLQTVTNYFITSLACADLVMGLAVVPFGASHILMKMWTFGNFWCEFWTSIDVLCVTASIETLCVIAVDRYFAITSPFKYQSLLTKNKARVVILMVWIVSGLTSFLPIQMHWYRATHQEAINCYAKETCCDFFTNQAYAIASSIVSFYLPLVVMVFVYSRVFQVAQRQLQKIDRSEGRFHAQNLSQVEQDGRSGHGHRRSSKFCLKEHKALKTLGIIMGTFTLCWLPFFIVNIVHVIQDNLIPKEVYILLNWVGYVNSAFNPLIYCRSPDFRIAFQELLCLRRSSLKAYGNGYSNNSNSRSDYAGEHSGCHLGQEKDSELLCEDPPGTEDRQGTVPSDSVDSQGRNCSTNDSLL
Description: In vivo sympatholytic activity (isoproterenol-induced vasodepression) at beta 2-adrenergic receptor in anesthetized dog, iv
Experiment [7] relates to Rattus norvegicus. The experiment can be described thus: Antihypertensive activity in spontaneously hypertensive rats(SHR) at 50 mg/kg peroral dose after 1 h, expressed as decrease in systolic blood pressure. To be noted: route oral. The experiment is classed as functional, Artery.
The target of experiment [8] is T1, Adrenergic receptor alpha-1 (Homo sapiens, UniProt P35348+P25100+P35368).
T1 sequence (P35348 whole entry): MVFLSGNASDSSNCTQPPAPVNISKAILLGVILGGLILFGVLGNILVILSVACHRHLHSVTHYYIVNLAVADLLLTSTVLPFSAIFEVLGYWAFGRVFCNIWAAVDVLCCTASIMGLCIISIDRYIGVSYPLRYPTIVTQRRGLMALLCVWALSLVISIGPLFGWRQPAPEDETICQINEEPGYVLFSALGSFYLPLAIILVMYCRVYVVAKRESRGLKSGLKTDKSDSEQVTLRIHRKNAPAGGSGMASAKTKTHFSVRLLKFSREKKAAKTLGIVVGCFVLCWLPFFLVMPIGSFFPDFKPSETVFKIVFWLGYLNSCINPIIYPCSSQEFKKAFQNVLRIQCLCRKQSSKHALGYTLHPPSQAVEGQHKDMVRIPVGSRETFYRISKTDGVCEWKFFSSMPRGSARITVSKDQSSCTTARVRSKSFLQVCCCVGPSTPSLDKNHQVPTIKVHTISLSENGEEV
T1 sequence (P25100 whole entry): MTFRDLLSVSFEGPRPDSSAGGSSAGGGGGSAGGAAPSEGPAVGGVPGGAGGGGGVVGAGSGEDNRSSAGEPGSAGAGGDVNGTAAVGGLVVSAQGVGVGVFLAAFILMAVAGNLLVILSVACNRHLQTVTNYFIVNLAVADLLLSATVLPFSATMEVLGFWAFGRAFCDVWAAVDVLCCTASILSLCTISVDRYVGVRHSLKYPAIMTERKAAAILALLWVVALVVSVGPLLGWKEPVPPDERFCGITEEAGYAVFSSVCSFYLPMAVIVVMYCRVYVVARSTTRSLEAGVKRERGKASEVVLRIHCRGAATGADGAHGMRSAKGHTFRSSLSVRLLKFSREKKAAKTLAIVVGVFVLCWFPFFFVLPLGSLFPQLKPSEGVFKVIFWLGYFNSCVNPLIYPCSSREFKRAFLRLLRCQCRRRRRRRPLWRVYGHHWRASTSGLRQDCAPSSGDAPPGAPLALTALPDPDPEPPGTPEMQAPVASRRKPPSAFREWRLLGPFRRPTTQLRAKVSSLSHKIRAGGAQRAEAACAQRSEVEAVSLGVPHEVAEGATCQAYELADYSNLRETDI
T1 sequence (P35368 whole entry): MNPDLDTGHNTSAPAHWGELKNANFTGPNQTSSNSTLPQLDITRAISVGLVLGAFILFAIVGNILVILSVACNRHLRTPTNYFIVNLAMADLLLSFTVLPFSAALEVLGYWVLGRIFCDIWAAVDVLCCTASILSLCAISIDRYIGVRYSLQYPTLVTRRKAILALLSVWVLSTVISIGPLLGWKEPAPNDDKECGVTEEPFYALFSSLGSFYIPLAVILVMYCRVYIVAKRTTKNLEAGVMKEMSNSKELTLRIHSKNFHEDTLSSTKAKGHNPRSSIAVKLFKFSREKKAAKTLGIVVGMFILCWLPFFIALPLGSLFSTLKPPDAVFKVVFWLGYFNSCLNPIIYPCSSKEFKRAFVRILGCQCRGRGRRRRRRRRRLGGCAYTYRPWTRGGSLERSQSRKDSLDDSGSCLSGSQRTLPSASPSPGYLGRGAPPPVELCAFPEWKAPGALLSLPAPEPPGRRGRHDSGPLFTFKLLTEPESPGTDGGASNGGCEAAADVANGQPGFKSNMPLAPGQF
The experiment can be described thus: In vitro blocking activity against alpha adrenergic receptor, isolated from rabbit aortic strip. The experiment is classed as protein assay, Oryctolagus cuniculus.

The species named for experiment [9] is Cavia porcellus. In words: spasmolytic activity in isolated guinea pig ileum preparation;- log KB; (Bacl2). It is filed as functional, organism-based. To be noted: read-out: pA2 (converted).

Beta-1 adrenergic receptor (Homo sapiens), sequence (P08588 whole entry, looked up): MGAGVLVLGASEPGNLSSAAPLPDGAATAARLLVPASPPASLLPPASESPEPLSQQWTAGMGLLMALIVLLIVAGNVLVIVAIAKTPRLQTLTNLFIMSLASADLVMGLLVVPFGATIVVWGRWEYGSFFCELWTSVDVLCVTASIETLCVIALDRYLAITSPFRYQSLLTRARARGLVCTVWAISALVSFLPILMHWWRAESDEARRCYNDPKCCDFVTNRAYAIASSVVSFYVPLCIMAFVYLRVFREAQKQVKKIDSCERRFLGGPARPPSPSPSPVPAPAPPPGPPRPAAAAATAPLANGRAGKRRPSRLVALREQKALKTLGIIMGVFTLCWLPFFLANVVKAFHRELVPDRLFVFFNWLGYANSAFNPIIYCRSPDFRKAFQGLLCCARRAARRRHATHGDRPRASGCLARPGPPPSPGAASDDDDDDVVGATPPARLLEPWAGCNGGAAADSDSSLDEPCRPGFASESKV

Take `Cc1ccccc1N1CCN(CC(O)c2ccc(O)c(C(N)=O)c2)CC1.Cl.Cl` (configuration not stated): the Ratio in experiment [1] was found to be 0.1. The figures for the DR10 in experiment [2], in experiment [4] and in experiment [6] were 1.09 mg/kg, 15.3 mg/kg and > 10 mg/kg, respectively. Besides, the pA2 in experiment [3] is listed as 6.7; in [8], 7.57. The BP decrease in experiment [5] turned out to be 37 mmHg; in [7] it was 48 mmHg. The Kb in [9] was 1860 nM.
`COc1ccc(C(O)CNC(C)CCc2ccc3c(c2)OCO3)cc1C(N)=O.Cl` (configuration not stated): the Ratio in experiment [1] was > 2090. Further, the values for the DR10 in experiment [2], in experiment [4] and in [6] were 9.68 mg/kg, 0.23 mg/kg and 1.64 mg/kg, respectively. The pA2 in experiment [3] is 8.46; in [8], < 5.14. Moreover, the BP decrease is recorded as 78 mmHg in experiment [5] and 76 mmHg in experiment [7]. The Kb in experiment [9] is 43700 nM.
`CCNC(=O)c1cc(C(O)CNC(C)CCc2ccc3c(c2)OCO3)ccc1O.Cl` (configuration not stated): the Ratio in [1] turned out to be 3.2. Moreover, the DR10 in experiment [2] was 3.22 mg/kg; in [4], 11.8 mg/kg; in experiment [6], 16.8 mg/kg. Besides, the pA2 in [3] is recorded as 6.36; in experiment [8], 5.86. Further, the BP decrease in experiment [5] was 108 mmHg; in experiment [7], 95 mmHg. In experiment [9], the Kb is 1740 nM.
On to `COC(=O)c1cc(C(O)CNC(C)CCc2ccc3c(c2)OCO3)ccc1O.Cl` (configuration not stated), for which the Ratio in experiment [1] came to 78. Also, the DR10 amounted to 5.82 mg/kg in experiment [2], 2.19 mg/kg in experiment [4] and 5.46 mg/kg in experiment [6]. Moreover, the pA2 in experiment [3] is 7.62; in experiment [8], 5.73. Also, the figures for the BP decrease in experiment [5] and in [7] were 53 mmHg and 56 mmHg, respectively. In addition, in experiment [9], the Kb was 126 nM.
In the case of `CC(Cc1ccc2c(c1)OCO2)NCC(O)c1ccc(O)c(C(N)=O)c1` (configuration not stated), in experiment [1], the Ratio was 0.9. The DR10 in experiment [2] came to 16 mg/kg; in [4] it was 6.75 mg/kg; in experiment [6], 7.13 mg/kg. The figures for the pA2 in [3] and in experiment [8] were 5.97 and 6.04, respectively. Moreover, the figures for the BP decrease in experiment [5] and in experiment [7] were 73 mmHg and 79 mmHg, respectively. Besides, the Kb in experiment [9] was 4570 nM.
For the molecule `CC(C)(CCc1ccc2c(c1)OCO2)NCC(O)c1ccc(O)c(C(N)=O)c1.Cl` (configuration not stated), the Ratio in experiment [1] is 69. For the same molecule, the figures for the pA2 in [3] and in experiment [8] were 7.15 and 5.31, respectively. The DR10 in experiment [4] came out at 2.1 mg/kg; in [6], 0.76 mg/kg. The BP decrease is 61 mmHg in experiment [5] and 43 mmHg in [7]. The Kb in experiment [9] is 676 nM.
Turning to `COC(=O)c1cc(C(O)CN2CCC(n3c(O)nc4ccccc43)CC2)ccc1O.Cl` (configuration not stated), in experiment [1], the Ratio was 0.06. The pA2 amounted to 5.71 in experiment [3] and 6.94 in experiment [8]. In addition, the BP decrease in [5] stood at 37 mmHg; in experiment [7] it was 52 mmHg. Also, the Kb in [9] was 1260 nM.
Consider `COC(=O)c1cc(C(O)CN2CCN(c3ccccc3OC)CC2)ccc1OC.Cl` (configuration not stated), for which the Ratio in experiment [1] worked out at 0.3. Also, the pA2 in experiment [3] is 6.41; in experiment [8], 7. Further, the BP decrease in experiment [5] is 35 mmHg; in experiment [7] it was 37 mmHg. For the same molecule, in experiment [9], the Kb was 34700 nM.
Turning to `Cl.NC(=O)c1cc(C(O)CN2CCN(Cc3ccccc3)CC2)ccc1O` (configuration not stated), the Ratio in experiment [1] turned out to be 0.9. The pA2 in [3] is 5.07; in [8] it was 5.13. Besides, the BP decrease in experiment [5] turned out to be 40 mmHg; in experiment [7], 35 mmHg. Further, the Kb in experiment [9] was > 74100 nM.
On to `CC(CCc1ccc2c(c1)OCO2)NCC(O)c1ccc(O)c(C(=O)N(C)C)c1.Cl` (configuration not stated), for which the Ratio in experiment [1] stood at 56. In addition, the pA2 in experiment [3] stood at 7.21; in experiment [8], 5.46. For the same molecule, the BP decrease is reported as 22 mmHg in experiment [5] and 24 mmHg in experiment [7]. Besides, the Kb in [9] is 8710 nM.
